Experimental data as given in article PMC4126177, “Molecular docking simulation studies on potent butyrylcholinesterase inhibitors obtained from microbial transformation of dihydrotestosterone” (Chemistry Central Journal, 2013).
Read-outs that look alike come from different tables or passages of the source.

Target: T1, Equine serum BChE (butyrylcholinesterase) (Equus caballus, UniProt P81908)
T1 construct: commercial native enzyme from horse serum (Sigma); docking used human BChE 1P0P, not the assayed protein
Test: DTNB (Ellman-type) spectrophotometric assay, […] nm
Type: biochemical

T1 sequence (P81908 whole entry): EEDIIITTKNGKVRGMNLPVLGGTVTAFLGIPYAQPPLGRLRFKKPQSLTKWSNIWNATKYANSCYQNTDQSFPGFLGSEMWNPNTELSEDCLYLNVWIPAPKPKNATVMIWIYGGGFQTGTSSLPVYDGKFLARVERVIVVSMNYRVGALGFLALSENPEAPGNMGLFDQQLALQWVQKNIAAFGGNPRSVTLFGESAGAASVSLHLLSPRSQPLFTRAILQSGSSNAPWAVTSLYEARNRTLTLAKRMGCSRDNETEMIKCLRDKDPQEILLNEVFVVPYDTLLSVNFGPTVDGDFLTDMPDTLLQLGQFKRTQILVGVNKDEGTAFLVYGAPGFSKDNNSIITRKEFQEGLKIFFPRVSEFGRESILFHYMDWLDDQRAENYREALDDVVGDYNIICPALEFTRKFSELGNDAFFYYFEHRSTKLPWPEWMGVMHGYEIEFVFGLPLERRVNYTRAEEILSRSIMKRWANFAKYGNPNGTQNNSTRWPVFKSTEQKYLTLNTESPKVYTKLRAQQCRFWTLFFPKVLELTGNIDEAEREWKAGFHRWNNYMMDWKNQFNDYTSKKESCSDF

Row | SMILES | IC50 [µM] | IC50 (read-out: Mean ± SEM^ a [ μ M]) [µM]
1 | C[C@]12C=CC(=O)C=C1CC[C@@H]1[C@@H]2CC[C@]2(C)C(=O)CC[C@@H]12 [compound 5, Androst-1,4-dien-3,17-dione] | 11.8 ± 0.5 | 
2 | C[C@]12CCC(=O)C=C1CC[C@@H]1[C@@H]2[C@H](O)C[C@]2(C)C(=O)CC[C@@H]12 [compound 6, 11α-Hydroxyandrost-4-en-3,17-dione] |  | 20.5 ± 0.2
